Measurements published in ChEMBL document CHEMBL4825727, “Cytotoxic oxidovanadium(IV) complexes of tridentate halogen-substituted Schiff bases: First dinuclear V(IV) complexes with O → VIV = O → VIV = O core” (Bioorg Med Chem Lett, 2021).

Tests used:
Type in all cases: functional, cell-based
MCF7 = assay: Cytotoxicity against human MCF7 cells assessed as reduction in cell viability measured after 48 hrs by MTT assay; details: MCF7, 48 h
PC-3 = assay: Cytotoxicity against human PC-3 cells assessed as reduction in cell viability measured after 48 hrs by MTT assay; details: PC-3, 48 h
A2780 = assay: Cytotoxicity against human A2780 cells assessed as reduction in cell viability measured after 48 hrs by MTT assay; details: A2780, 48 h

Compound	IC50 (MCF7) [µM]	IC50 (PC-3) [µM]	IC50 (A2780) [µM]
Oc1ccc(Cl)cc1/C=N/CCc1ccccn1	45	110	51
Oc1ccc(Br)cc1/C=N/CCc1ccccn1	42	108	50
Oc1c(Br)cc(Cl)cc1/C=N/CCc1ccccn1	48	83	48
Oc1ccccc1/C=N/CCc1ccccn1	> 100	> 100	> 100
